Measurements reported in patent US20240376090A1, “ISOXAZOLE DERIVATIVES AS MODULATORS OF THE 5-HT2A SEROTONIN RECEPTOR USEFUL FOR THE TREATMENT OF DISORDERED RELATED THERETO” (Arena Pharmaceuticals, Inc., priority 2020, published 2024).

Target: 5-HT2A receptor (Homo sapiens (Human), UniProt P28223)
Test: Radioligand binding assay ([3H]5-HT competition), 5-HT2A
Settings: [3H]5-HT radioligand, membranes of HEK293 cells expressing recombinant 5-HT2A; Ki from IC50 by Cheng-Prusoff; read-out: 5-HT2A serotonin binding Ki value
Experimental: Competition binding experiments consisted of addition of 5 μL of serially diluted test compound, 50 μL of radioligand stock diluted in Assay Buffer (20 mM HEPES, pH 7.4, 10 mM MgCl2), and 145 μL of diluted membrane expressing the receptor of interest to 96-well microtiter plates, which were then incubated for one hour at room temperature. Assay incubations were terminated by rapid filtration through Perkin Elmer GF/C filtration plates under vacuum pressure using a 96-well Packard filtration apparatus, followed by washing the filter plates several times with ice cold Assay Buffer. Plates were then dried at 45° C. for a minimum of four hours. Finally, 25 μL of BetaScint scintillation cocktail was added to each well and the plates were counted in a Packard TopCount scintillation counter. In each competition study, test compounds were assayed at 10 concentrations with three replicates at each test concentration. Dose-response curves were constructed to determine IC50 values and these were converted to corresponding Ki values using the Cheng-Prusoff equation.

Chain of 5-HT2A receptor (P28223 whole entry): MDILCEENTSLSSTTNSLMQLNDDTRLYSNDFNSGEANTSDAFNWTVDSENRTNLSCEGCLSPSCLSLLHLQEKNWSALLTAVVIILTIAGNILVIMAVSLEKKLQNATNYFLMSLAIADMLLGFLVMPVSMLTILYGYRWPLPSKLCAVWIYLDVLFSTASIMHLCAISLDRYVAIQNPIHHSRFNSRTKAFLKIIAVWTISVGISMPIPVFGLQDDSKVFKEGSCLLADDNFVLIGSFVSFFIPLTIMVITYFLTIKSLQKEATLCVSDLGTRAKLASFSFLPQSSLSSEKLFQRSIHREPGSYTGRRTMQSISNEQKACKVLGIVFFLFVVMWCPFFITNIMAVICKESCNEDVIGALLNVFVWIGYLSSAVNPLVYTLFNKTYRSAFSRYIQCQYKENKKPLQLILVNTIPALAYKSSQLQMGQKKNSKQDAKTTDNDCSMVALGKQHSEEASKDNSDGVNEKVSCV

Molecule `Cc1noc(C)c1-c1cc(NC(=O)C2CC2C2CC2)ccc1OCCN1CCCC1` (stereo not drawn) [Compound 100, N-(3-(3,5-dimethylisoxazol-4-yl)-4-(2-(pyrrolidin-1-yl)ethoxy)phenyl)-[1,1′-bi(cyclopropane)]-2-carboxamide] has a Ki of 2.89 nM.

With `CCOCCC(=O)Nc1ccc(OCCN2CCCC2)c(-c2c(C)noc2C)c1` [Compound 101, N-(3-(3,5-dimethylisoxazol-4-yl)-4-(2-(pyrrolidin-1-yl)ethoxy)phenyl)-3-ethoxypropanamide] the Ki was 78.3 nM.

With `Cc1noc(C)c1-c1cc(NC(=O)c2ccncc2)ccc1OCCN1CCCC1` [Compound 102, N-(3-(3,5-dimethylisoxazol-4-yl)-4-(2-(pyrrolidin-1-yl)ethoxy)phenyl)isonicotinamide] the Ki was 119 nM.

Work on `Cc1noc(C)c1-c1cc(NC(=O)c2ccncc2F)ccc1OCCN1CCCC1` [Compound 103, N-(3-(3,5-dimethylisoxazol-4-yl)-4-(2-(pyrrolidin-1-yl)ethoxy)phenyl)-3-fluoroisonicotinamide] yielded a Ki of 50.8 nM.

With `Cc1noc(C)c1-c1cc(NC(=O)c2cc(F)ccn2)ccc1OCCN1CCCC1` [Compound 104, N-(3-(3,5-dimethylisoxazol-4-yl)-4-(2-(pyrrolidin-1-yl)ethoxy)phenyl)-4-fluoropicolinamide] the Ki was 19.6 nM.

In the case of `Cc1noc(C)c1-c1cc(NC(=O)c2cc(Cl)ccn2)ccc1OCCN1CCCC1` [Compound 105, 4-chloro-N-(3-(3,5-dimethylisoxazol-4-yl)-4-(2-(pyrrolidin-1-yl)ethoxy)phenyl)picolinamide], the Ki is reported as 3.94 nM.

For `Cc1noc(C)c1-c1cc(NC(=O)[C@@H]2C[C@H]2F)ccc1OCCN1CCCC1` [Compound 106, (1S,2R)—N-[3-(3,5-dimethylisoxazol-4-yl)-4-(2-pyrrolidin-1-ylethoxy)phenyl]-2-fluoro-cyclopropanecarboxamide], the Ki was 1.13 nM.

For `Cc1noc(C)c1-c1cc(NC(=O)[C@H]2C[C@H]2F)ccc1OCCN1CCCC1` [Compound 107, (1R,2R)—N-(3-(3,5-dimethylisoxazol-4-yl)-4-(2-(pyrrolidin-1-yl)ethoxy)phenyl)-2-fluorocyclopropane-1-carboxamide], the Ki was 15.1 nM.

`Cc1noc(C)c1-c1cc(NC(=O)[C@@H]2C[C@@H]2F)ccc1OCCN1CCCC1` [Compound 108, (1S,2S)—N-(3-(3,5-dimethylisoxazol-4-yl)-4-(2-(pyrrolidin-1-yl)ethoxy)phenyl)-2-fluorocyclopropane-1-carboxamide] was tested, and the Ki was 6.21 nM.

`Cc1ncsc1C(=O)Nc1ccc(OCCN2CCCC2)c(-c2c(C)noc2C)c1` [Compound 109, N-(3-(3,5-dimethylisoxazol-4-yl)-4-(2-(pyrrolidin-1-yl)ethoxy)phenyl)-4-methylthiazole-5-carboxamide] showed a Ki of 3.78 nM.

With `Cc1nc(C)c(C(=O)Nc2ccc(OCCN3CCCC3)c(-c3c(C)noc3C)c2)s1` [Compound 110, N-(3-(3,5-dimethylisoxazol-4-yl)-4-(2-(pyrrolidin-1-yl)ethoxy)phenyl)-2,4-dimethylthiazole-5-carboxamide] the Ki was 110 nM.

Molecule `Cc1cnoc1C(=O)Nc1ccc(OCCN2CCCC2)c(-c2c(C)noc2C)c1` [Compound 111, N-(3-(3,5-dimethylisoxazol-4-yl)-4-(2-(pyrrolidin-1-yl)ethoxy)phenyl)-4-methylisoxazole-5-carboxamide] has a Ki of 23.8 nM.

`Cc1ncoc1C(=O)Nc1ccc(OCCN2CCCC2)c(-c2c(C)noc2C)c1` [Compound 112, N-(3-(3,5-dimethylisoxazol-4-yl)-4-(2-(pyrrolidin-1-yl)ethoxy)phenyl)-4-methyloxazole-5-carboxamide] gave a Ki of 14.1 nM.

Work on `CCOC1CC1C(=O)Nc1ccc(OCCN2CCCC2)c(-c2c(C)noc2C)c1` (stereo not drawn) [Compound 115, N-(3-(3,5-dimethylisoxazol-4-yl)-4-(2-(pyrrolidin-1-yl)ethoxy)phenyl)-2-ethoxycyclopropane-1-carboxamide] yielded a Ki of 8.52 nM.

With `Cc1noc(C)c1-c1cc(NC(=O)c2ccnn2C)ccc1OCCN1CCCC1` [Compound 116, N-[3-(3,5-dimethylisoxazol-4-yl)-4-(2-pyrrolidin-1-ylethoxy)phenyl]-2-methyl-pyrazole-3-carboxamide] the Ki was 6.15 nM.

With `Cc1noc(C)c1-c1cc(NC(=O)c2ccnn2C)ccc1OCCN1CCC1` [Compound 118, N-(4-(2-(azetidin-1-yl)ethoxy)-3-(3,5-dimethylisoxazol-4-yl)phenyl)-1-methyl-1H-pyrazole-5-carboxamide] the Ki was 18.9 nM.

`Cc1noc(C)c1-c1cc(NC(=O)c2ccccc2)ccc1OCCN1CCC1` [Compound 120, N-(4-(2-(azetidin-1-yl)ethoxy)-3-(3,5-dimethylisoxazol-4-yl)phenyl)benzamide] gave a Ki of 9.41 nM.

`Cc1noc(C)c1-c1cc(NC(=O)Cc2ccccc2)ccc1OCCN1CCC1` [Compound 123, N-(4-(2-(azetidin-1-yl)ethoxy)-3-(3,5-dimethylisoxazol-4-yl)phenyl)-2-phenylacetamide] was tested, and the Ki was 11.8 nM.

With `COc1cccc(CC(=O)Nc2ccc(OCCN3CCC3)c(-c3c(C)noc3C)c2)c1` [Compound 124, N-(4-(2-(azetidin-1-yl)ethoxy)-3-(3,5-dimethylisoxazol-4-yl)phenyl)-2-(3-methoxyphenyl)acetamide] the Ki was 10.6 nM.

`COc1ccc(CC(=O)Nc2ccc(OCCN3CCC3)c(-c3c(C)noc3C)c2)cc1` [Compound 126, N-(4-(2-(azetidin-1-yl)ethoxy)-3-(3,5-dimethylisoxazol-4-yl)phenyl)-2-(4-methoxyphenyl) acetamide] showed a Ki of 5.28 nM.

Work on `Cc1ncsc1CC(=O)Nc1ccc(OCCN2CCC2)c(-c2c(C)noc2C)c1` [Compound 127, N-(4-(2-(azetidin-1-yl)ethoxy)-3-(3,5-dimethylisoxazol-4-yl)phenyl)-2-(4-methylthiazol-5-yl)acetamide] yielded a Ki of 8.51 nM.

For `Cc1noc(C)c1-c1cc(NC(=O)Cc2cncc(F)c2)ccc1OCCN1CCC1` [Compound 128, N-(4-(2-(azetidin-1-yl)ethoxy)-3-(3,5-dimethylisoxazol-4-yl)phenyl)-2-(5-fluoropyridin-3-yl)acetamide], the Ki was 14.6 nM.

`Cc1noc(C)c1-c1cc(NC(=O)c2c(F)cnn2C)ccc1OCCN1CCC1` [Compound 130, N-(4-(2-(azetidin-1-yl)ethoxy)-3-(3,5-dimethylisoxazol-4-yl)phenyl)-4-fluoro-1-methyl-1H-pyrazole-5-carboxamide] gave a Ki of 12.8 nM.

Work on `CCOC1CC1C(=O)Nc1ccc(OCCN2CCC2)c(-c2c(C)noc2C)c1` (stereo not drawn) [Compound 131, N-(4-(2-(azetidin-1-yl)ethoxy)-3-(3,5-dimethylisoxazol-4-yl)phenyl)-2-ethoxycyclopropane-1-carboxamide] yielded a Ki of 77.7 nM.

With `Cc1noc(C)c1-c1cc(NC(=O)C2CC2)ccc1OC1CN(C)C1` [Compound 132, N-[3-(3,5-dimethylisoxazol-4-yl)-4-(1-methylazetidin-3-yl)oxy-phenyl]cyclopropanecarboxamide] the Ki was 46.1 nM.

Work on `CCN1CC(Oc2ccc(NC(=O)C3CC3)cc2-c2c(C)noc2C)C1` [Compound 133, N-(3-(3,5-dimethylisoxazol-4-yl)-4-((1-ethylazetidin-3-yl)oxy)phenyl)cyclopropanecarboxamide] yielded a Ki of 51.3 nM.

Molecule `Cc1noc(C)c1-c1cc(NC(=O)c2c(F)cnn2C)ccc1OCCN1CCOCC1` [Compound 134, N-[3-(3,5-dimethylisoxazol-4-yl)-4-(2-morpholinoethoxy)phenyl]-4-fluoro-2-methyl-pyrazole-3-carboxamide] has a Ki of 5.86 nM.
